Assay: mn = molality of the nth substance listed, in mol/kg
Settings: 101 kPa, Liquid, Vibrating tube method

CC(C)[C@H](N)C(=O)O [L-valine] + O
mass density [kg/m3]
Settings | m1 = 0.04524 | m1 = 0.09973 | m1 = 0.152 | m1 = 0.1964 | m1 = 0.2542 | m1 = 0.2955
293.15 K | 999.424 | 1000.87 | 1002.24 | 1003.4 | 1004.9 | 1006.01
298.15 K | 998.244 | 999.672 | 1001.03 | 1002.18 | 1003.67 | 1004.72
303.15 K | 996.827 | 998.242 | 999.59 | 1000.73 | 1002.2 | 1003.25
308.15 K | 995.195 | 996.6 | 997.939 | 999.067 | 1000.53 | 1001.56

CC(C)C[C@H](N)C(=O)O [L-leucine] + O
mass density [kg/m3]
Settings | m1 = 0.03401 | m1 = 0.03488 | m1 = 0.05007 | m1 = 0.08154 | m1 = 0.119 | m1 = 0.1427
293.15 K | 999.039 | 999.061 | 999.427 | 1000.18 | 1001.08 | 1001.64
298.15 K | 997.855 | 997.877 | 998.236 | 998.978 | 999.854 | 1000.41
303.15 K | 996.441 | 996.462 | 996.817 | 997.55 | 998.417 | 998.966
308.15 K | 994.81 | 994.83 | 995.182 | 995.908 | 996.767 | 997.31

NCC(=O)O [2-aminoacetic acid] + O
mass density [kg/m3]
Settings | m1 = 0.05482 | m1 = 0.1106 | m1 = 0.1792 | m1 = 0.2044 | m1 = 0.2754 | m1 = 0.2966
293.15 K | 999.976 | 1001.75 | 1003.91 | 1004.69 | 1006.9 | 1007.58
298.15 K | 998.789 | 1000.54 | 1002.68 | 1003.46 | 1005.64 | 1006.28
303.15 K | 997.364 | 999.102 | 1001.22 | 1002 | 1004.17 | 1004.81
308.15 K | – | 997.455 | 999.562 | 1000.33 | 1002.5 | 1003.13
